For one assay, the system named is MV4;11 cells. Put plainly: MV4;11 in vitro inhibition of proliferation assay (CellTiter-Glo, 72 hours). The format is cell-based. As to conditions: Homo sapiens, MV4-11, 72 h, IC50 class, read-out: Inhibitory activity of cell proliferation MV4;11. In a few lines: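 MV4;11 cells in IMDM/10% FBS, 2000 per well, were exposed to 9-point 3-fold DMSO dilutions from 10 uM (final DMSO 0.3%) in triplicate for 72 hours at 37° C., 5% CO2. Viability was read by CellTiter-Glo luminescence, and IC50 came from a four-parameter fit of inhibition.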
On the technique in general: In ATP-based viability assays light output follows the ATP content of the culture.

The target in the next assay is T1, FLT3 (Homo sapiens, UniProt P36888).
T1 construct: purchased Carna 08-145
T1 sequence (P36888 27-993): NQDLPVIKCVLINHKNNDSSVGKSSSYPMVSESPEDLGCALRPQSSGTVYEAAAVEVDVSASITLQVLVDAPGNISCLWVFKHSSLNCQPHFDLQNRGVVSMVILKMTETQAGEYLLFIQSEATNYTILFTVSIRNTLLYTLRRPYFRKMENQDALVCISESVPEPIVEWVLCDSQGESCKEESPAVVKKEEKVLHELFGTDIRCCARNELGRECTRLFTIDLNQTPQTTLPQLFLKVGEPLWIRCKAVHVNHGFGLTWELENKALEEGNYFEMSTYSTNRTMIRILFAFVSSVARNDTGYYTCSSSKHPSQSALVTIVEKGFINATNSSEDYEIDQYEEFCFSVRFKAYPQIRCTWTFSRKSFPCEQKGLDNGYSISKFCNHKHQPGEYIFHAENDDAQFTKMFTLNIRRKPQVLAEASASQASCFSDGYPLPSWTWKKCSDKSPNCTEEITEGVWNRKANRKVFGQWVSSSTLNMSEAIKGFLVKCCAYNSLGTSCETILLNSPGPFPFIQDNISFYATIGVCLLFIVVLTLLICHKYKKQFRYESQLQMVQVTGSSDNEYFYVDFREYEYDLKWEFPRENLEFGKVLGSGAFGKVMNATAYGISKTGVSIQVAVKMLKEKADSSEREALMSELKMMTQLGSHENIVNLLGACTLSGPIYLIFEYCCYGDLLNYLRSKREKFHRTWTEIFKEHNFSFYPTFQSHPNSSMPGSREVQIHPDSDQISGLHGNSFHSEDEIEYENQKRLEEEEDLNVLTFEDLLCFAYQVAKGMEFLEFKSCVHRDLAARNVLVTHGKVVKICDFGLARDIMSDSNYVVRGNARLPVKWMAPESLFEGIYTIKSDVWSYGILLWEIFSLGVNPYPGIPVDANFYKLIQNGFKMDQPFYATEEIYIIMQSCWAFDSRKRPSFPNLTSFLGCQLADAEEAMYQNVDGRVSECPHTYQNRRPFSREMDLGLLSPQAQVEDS
Put plainly: FLT3 kinase in vitro inhibitory activity experiment (Caliper mobility shift, conversion rate). The note with it: IC50 class, read-out: Enzyme activity FLT3. Format: biochemical. In a few lines:
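FLT3 was pre-incubated with compound for 10 min at room temperature, then the reaction was started with ATP plus Kinase substrate 2 and run 30 min at room temperature before stop solution. Substrate conversion was read by Caliper mobility shift.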

For 35 compounds, IC50 results are on record in US12673947B2 (Cytosinlab Therapeutics Co., Ltd., priority 2020, dated 2026).

As for `CCc1nc2c(N)ncc(-c3cnn(C4CCN(C5CCN(C)CC5)CC4)c3)c2nc1NC1CCC(O)C1` (stereo not shown) [Compound 134, 3-((5-amino-3-ethyl-8-(1-(1′-methyl-[1,4′-bipiperidine]-4-yl)-1H-pyrazol-4-yl)pyridino[3,4-b]pyrazine-2-yl)amino)cyclopentan-1-ol], the IC50 in the assay on MV4;11 cells was 10 to 100 nM; at FLT3 it was at most 10 nM.
For `CCc1nc2c(N)ncc(-c3cnn(C4CCN(C5CCN(C)CC5)CC4)c3)c2nc1NC1CCOCC1` [Compound 135], in that order: 10 to 100 nM and at most 10 nM.
For `CCc1nc2c(N)ncc(-c3cnn(C4CCN(C)CC4)c3)c2nc1NC1CCOCC1` [Compound 136], in that order: 10 to 100 nM and at most 10 nM.
For `CCc1nc2c(N)ncc(-c3ccn(C)n3)c2nc1NC1CCOCC1` [Compound 138], in that order: above 500 nM and 100 to 500 nM.
For the compound `CCc1nc2c(N)ncc(-c3ccc(N4CCC(N5CCN(C)CC5)CC4)c(OC(F)F)c3)c2nc1NC1CCOCC1` [Compound 139], the IC50 in the assay on MV4;11 cells was 10 to 100 nM; at FLT3, at most 10 nM.
As for `CCc1nc2c(N)ncc(-c3cnn(CC4CCN(C5CCN(C)CC5)CC4)c3)c2nc1NC1CCOCC1` [Compound 155], the figures for the IC50 in the assay on MV4;11 cells and on FLT3 were 10 to 100 nM and at most 10 nM, respectively.
On the same counts, the results for `CCc1nc2c(N)ncc(-c3cnn(C4CCN(CCO)CC4)c3)c2nc1NC1CCOCC1` [Compound 156] are 10 to 100 nM and at most 10 nM.
Turning to `CCc1nc2c(N)ncc(-c3cnn(C4CCN(CC5CCNCC5)CC4)c3)c2nc1NC1CCOCC1` [Compound 157], the IC50 in the assay with MV4;11 cells is 10 to 100 nM; on FLT3, at most 10 nM.
On the same counts, the results for `CCc1nc2c(N)ncc(-c3cnn(C4CCN(CC5CCN(C)CC5)CC4)c3)c2nc1NC1CCOCC1` [Compound 158] are 10 to 100 nM and at most 10 nM.
On the same counts, the results for `CCc1nc2c(N)ncc(-c3cnn(C4CCN(C5CCNCC5)CC4)c3)c2nc1NC1CCOCC1` [Compound 160] are 10 to 100 nM and at most 10 nM.
For `CCc1nc2c(N)ncc(-c3cnn(C4C[C@H]5CC[C@@H](C4)N5C(C)C)c3)c2nc1N[C@@H]1CC[C@H](O)C1` (stereo partly shown) [Compound 166], the IC50 in the assay on MV4;11 cells and at FLT3 was at most 10 nM each time.
As for `CCc1nc2c(N)ncc(-c3cnn(C4C[C@H]5CC[C@@H](C4)N5CC(C)C)c3)c2nc1N[C@@H]1CC[C@H](O)C1` (stereo partly shown) [Compound 167], the IC50 with MV4;11 cells and at FLT3 was at most 10 nM each time.
As for `CCc1nc2c(N)ncc(-c3cnn(C4C[C@H]5CC[C@@H](C4)N5S(C)(=O)=O)c3)c2nc1N[C@@H]1CC[C@H](O)C1` (stereo partly shown) [Compound 168], the IC50 in the assay with MV4;11 cells and on FLT3 was at most 10 nM each time.
Turning to `CCc1nc2c(N)ncc(-c3cnn(C4CC(C)(C)N(C)C(C)(C)C4)c3)c2nc1N[C@@H]1CC[C@H](O)C1` [Compound 169, (1S,3R)-3-((5-amino-3-ethyl-8-(1-(1,2,2,6,6-pentamethylpiperidine-4-yl)-1H-pyrazol-4-yl)pyridino[3,4-b]pyrazine-2-yl)amino)cyclopentan-1-ol], the IC50 in the assay on MV4;11 cells and on FLT3 was at most 10 nM throughout.
Take `CCc1nc2c(N)ncc(-c3cnn(C4CCN(c5cccnc5)CC4)c3)c2nc1N[C@@H]1CC[C@H](O)C1` [Compound 170]: the IC50 in the assay on MV4;11 cells and at FLT3 was at most 10 nM each time.
In the case of `CCc1nc2c(N)ncc(-c3cnn(C4CCN(c5ccnc(C)c5)CC4)c3)c2nc1N[C@@H]1CC[C@H](O)C1` [Compound 171], the IC50 in the assay with MV4;11 cells and at FLT3 was at most 10 nM each time.
Regarding `CCc1nc2c(N)ncc(-c3cnn(C4CCN(c5ccncn5)CC4)c3)c2nc1N[C@@H]1CC[C@H](O)C1` [Compound 172], the IC50 with MV4;11 cells and at FLT3 was at most 10 nM in each case.
Turning to `CCc1nc2c(N)ncc(-c3cnn(C4CCN(c5ccnc(C)n5)CC4)c3)c2nc1N[C@@H]1CC[C@H](O)C1` [Compound 174], the IC50 with MV4;11 cells and on FLT3 was at most 10 nM throughout.
Regarding `CCc1nc2c(N)ncc(-c3cnn(C4CCN(c5cccnn5)CC4)c3)c2nc1N[C@@H]1CC[C@H](O)C1` [Compound 175], the IC50 in the assay on MV4;11 cells and at FLT3 was at most 10 nM in each case.
As to `CCc1nc2c(N)ncc(-c3cnn(-c4ccccc4)c3)c2nc1N[C@@H]1CC[C@H](O)C1` [Compound 176], the figures for the IC50 in the assay with MV4;11 cells and at FLT3 were 10 to 100 nM and at most 10 nM, respectively.
For `CCc1nc2c(N)ncc(-c3cnn(-c4ccc(C)nc4)c3)c2nc1N[C@@H]1CC[C@H](O)C1` [Compound 177, (1S,3R)-3-((5-amino-3-ethyl-8-(1-(6-methylpyridin-3-yl)-1H-pyrazol-4-yl)pyridino[3,4-b]pyrazin-2-yl)amino)cyclopentan-1-ol], in that order: at most 10 nM and at most 10 nM.
Consider `CCc1nc2c(N)ncc(-c3cnn(-c4ccc(F)cc4F)c3)c2nc1N[C@@H]1CC[C@H](O)C1` [Compound 178], for which the IC50 in the assay on MV4;11 cells and on FLT3 was at most 10 nM in each case.
As for `CCc1nc2c(N)ncc(-c3cnn(-c4ccncn4)c3)c2nc1N[C@@H]1CC[C@H](O)C1` [Compound 179], the IC50 with MV4;11 cells and on FLT3 was at most 10 nM in each case.
For `CCc1nc2c(N)ncc(-c3cnn(-c4ccnc(C)n4)c3)c2nc1N[C@@H]1CC[C@H](O)C1` [Compound 180, (1S,3R)-3-((5-amino-3-ethyl-8-(1-(2-methylpyrimidin-4-yl)-1H-pyrazol-4-yl)pyridino[3,4-b]pyrazin-2-yl)amino)cyclopentan-1-ol], the IC50 in the assay on MV4;11 cells and at FLT3 was at most 10 nM each time.
Regarding `CCc1nc2c(N)ncc(-c3cnn(C4CCN(CC(C)(C)O)CC4)c3)c2nc1N[C@@H]1CC[C@H](O)C1` [Compound 181], the IC50 in the assay on MV4;11 cells and on FLT3 was at most 10 nM in each case.
As to `CCc1nc2c(N)ncc(-c3cnn(C4CCN(CC(C)C)CC4)c3)c2nc1N[C@@H]1CC[C@H](O)C1` [Compound 182], the IC50 with MV4;11 cells and on FLT3 was at most 10 nM in each case.
As to `CCc1nc2c(N)ncc(-c3cnn(C4CCN(C(C)CC)CC4)c3)c2nc1N[C@@H]1CC[C@H](O)C1` (stereo partly shown) [Compound 183], the IC50 with MV4;11 cells and at FLT3 was at most 10 nM in each case.
Turning to `CCc1nc2c(N)ncc(-c3cnn(C4CCN(C(CC)CC)CC4)c3)c2nc1N[C@@H]1CC[C@H](O)C1` [Compound 184], the IC50 with MV4;11 cells and on FLT3 was at most 10 nM in each case.
For the compound `CCc1nc2c(N)ncc(-c3cnn(C4CCN(C(=O)C(C)C)CC4)c3)c2nc1N[C@@H]1CC[C@H](O)C1` [Compound 185, 1-(4-(4-(5-amino-3-ethyl-2-(((1R,3S)-3-hydroxycyclopentyl)amino)pyridino[3,4-b]pyrazin-8-yl)-1H-pyrazol-1-yl)piperidin-1-yl)-2-methylpropyl-1-one], the IC50 in the assay on MV4;11 cells and at FLT3 was at most 10 nM each time.
For `CCc1nc2c(N)ncc(-c3cnn(C4CCN(S(C)(=O)=O)CC4)c3)c2nc1N[C@@H]1CC[C@H](O)C1` [Compound 186], the IC50 in the assay on MV4;11 cells and at FLT3 was at most 10 nM in each case.
Regarding `CCc1nc2c(N)ncc(-c3cnn(C4CCN(S(=O)(=O)C(C)C)CC4)c3)c2nc1N[C@@H]1CC[C@H](O)C1` [Compound 187, (1S,3R)-3-((5-amino-3-ethyl-8-(1-(1-(isopropylsulfonyl)piperidin-4-yl)-1H-pyrazol-4-yl)pyridino[3,4b]pyrazin-2-yl)amino)cyclopentan-1-ol], the IC50 with MV4;11 cells and at FLT3 was at most 10 nM each time.
Take `CCc1nc2c(N)ncc(-c3cnn(C4CCN(S(=O)(=O)CC(C)C)CC4)c3)c2nc1N[C@@H]1CC[C@H](O)C1` [Compound 188]: the IC50 in the assay on MV4;11 cells and on FLT3 was at most 10 nM each time.
Consider `CCc1nc2c(N)ncc(-c3cnn(C4CCN(C(=O)NC(C)C)CC4)c3)c2nc1N[C@@H]1CC[C@H](O)C1` [Compound 189], for which the IC50 in the assay on MV4;11 cells and on FLT3 was at most 10 nM each time.
Take `CCc1nc2c(N)ncc(-c3cnn(C4CCN(C(=O)OC(C)(C)C)CC4)c3)c2nc1N[C@@H]1CC[C@H](O)C1` [Compound 190]: the IC50 in the assay on MV4;11 cells and on FLT3 was at most 10 nM throughout.
`CCc1nc2c(N)ncc(-c3cnn(C4CCCCC4)c3)c2nc1N[C@@H]1CC[C@H](O)C1` [Compound 192]: the IC50 in the assay with MV4;11 cells and on FLT3 was at most 10 nM each time.
